# In ChEMBL document CHEMBL6114943, “Engineered Cyclotide Blocks Neuronal Excitotoxicity” (J Med Chem, 2025):
# Calls of active or inactive are those of the source. No cut-off for these calls is given here. Where a SMILES comes first, the peptide text is derived from it. Bridges are numbered along the chain shown (N, C = ends).
# Columns and labels:
# [1] = Toxicity in C57BL/6 mouse assessed as histological changes in kidney at 3 nmol/g, iv administered 3 consecutive days by H and E staining based analysis; assay type: organism-based; conditions: in vivo
# [2] = test system: Neuron; experiment: Neuroprotective activity against Amyloid beta-induced cell death in mouse primary neuron assessed as cell viability preincubated with compound for 1 hrs followed by Amyloid beta addition and measured after 1 hrs by PI staining based analysis relative to control; assay type: functional; conditions: time 2 hrs
# [3] = Biodistribution in C57BL/6 mouse heart at 3 nmol/g, iv measured after 90 mins post injection using Cy7 labelled compound by fluorescence based analysis; assay type: ADME, organism-based; conditions: in vivo, 1.5 h
# [4] = test system: Neuron; experiment: Neuroprotective activity against NMDA-induced cell death in mouse primary neuron assessed as reduction in cell viability at 100 nM preincubated with compound for 1 hrs followed by NMDA addition and measured after 1 hrs by PI staining based analysis (reference value: 60.01 +/- 4%); assay type: functional; conditions: time 2 hrs
# [5] = Biodistribution in C57BL/6 mouse lung at 3 nmol/g, iv measured after 24 hrs post injection using Cy7 labelled compound by fluorescence based analysis; assay type: ADME, organism-based; conditions: in vivo
# [6] = Toxicity in C57BL/6 mouse assessed as histological changes in spleen at 3 nmol/g, iv administered 3 consecutive days by H and E staining based analysis; assay type: organism-based; conditions: in vivo
# [7] = test system: Neuron; experiment: Neuroprotective activity against NMDA-induced cell death in mouse primary neuron assessed as cell viability preincubated with compound for 1 hrs followed by NMDA addition and measured after 1 hrs by PI staining based analysis relative to control; assay type: functional; conditions: time 2 hrs
# [8] = test system: Neuron; experiment: Neuroprotective activity against NMDA-induced cell death in mouse primary neuron assessed as cell viability at 10 nM preincubated with compound for 1 hrs followed by NMDA addition and measured after 1 hrs by PI staining based analysis relative to control; assay type: functional; conditions: time 2 hrs, read-out: Activity
# [9] = test system: Neuron; experiment: Neuroprotective activity against Amyloid beta-induced cell death in mouse primary neuron assessed as cell viability at 100 nM preincubated with compound for 1 hrs followed by Amyloid beta addition and measured after 1 hrs by PI staining based analysis; assay type: functional; conditions: time 2.0 hrs
# [10] = Biodistribution in C57BL/6 mouse brain at 3 nmol/g, iv measured after 90 mins post injection using Cy7 labelled compound by fluorescence based analysis; assay type: ADME, organism-based; conditions: in vivo, 1.5 h
# [11] = Toxicity in C57BL/6 mouse assessed as change in alanine transaminase level at 3 nmol/g, iv administered 3 consecutive days; assay type: organism-based; conditions: in vivo
# [12] = test system: Mus musculus; experiment: Neuroprotective activity against pilocarpine-induced seizure in C57BL6 mouse assessed as survival rate at 30 nmol/g, po pretreated with compound for 1 hrs followed by pilocarpine induction and measured after 2 hrs relative to control; assay type: functional; conditions: time 3 hrs
# [13] = Biodistribution in C57BL/6 mouse kidney at 3 nmol/g, iv measured after 90 mins post injection using Cy7 labelled compound by fluorescence based analysis; assay type: ADME, organism-based; conditions: in vivo, 1.5 h
# [14] = biological target: Disks large homolog 4 (Homo sapiens, UniProt P78352); experiment: Binding affinity to PSD-95 (unknown origin) assessed as binding constant (Kd) by MST analysis
# [15] = Biodistribution in C57BL/6 mouse liver at 3 nmol/g, iv measured after 90 mins post injection using Cy7 labelled compound by fluorescence based analysis; assay type: ADME, organism-based; conditions: in vivo, 1.5 h
# [16] = Drug uptake in mouse Primary neuron at 100 nM measured at 20 mins by inverted confocal microscopic analysis; assay type: ADME, cell-based; conditions: 0.1 µM
# [17] = Biodistribution in C57BL/6 mouse lung at 3 nmol/g, iv measured after 90 mins post injection using Cy7 labelled compound by fluorescence based analysis; assay type: ADME, organism-based; conditions: in vivo, 1.5 h
# [18] = test system: Neuron; experiment: Neuroprotective activity against Amyloid beta-induced cell death in mouse primary neuron assessed as cell viability at 0.1 nM preincubated with compound for 1 hrs followed by Amyloid beta addition and measured after 1 hrs by PI staining based analysis; assay type: functional
# [19] = test system: Neuron; experiment: Neuroprotective activity against NMDA-induced cell death in mouse primary neuron assessed as cell viability at 1 nM preincubated with compound for 1 hrs followed by NMDA addition and measured after 1 hrs by PI staining based analysis relative to control; assay type: functional; conditions: time 2 hrs, read-out: Activity
# [20] = Toxicity in C57BL/6 mouse assessed as histological changes in liver at 3 nmol/g, iv administered 3 consecutive days by H and E staining based analysis; assay type: organism-based; conditions: in vivo
# [21] = Toxicity in C57BL/6 mouse assessed as histological changes in lung at 3 nmol/g, iv administered 3 consecutive days by H and E staining based analysis; assay type: organism-based; conditions: in vivo
# [22] = test system: Mus musculus; experiment: Neuroprotective activity against pilocarpine-induced seizure in C57BL6 mouse assessed as survival rate at 3 nmol/g, iv pretreated with compound for 1 hrs followed by pilocarpine induction and measured after 2 hrs relative to control; assay type: functional; conditions: time 3 hrs
# [23] = Biodistribution in C57BL/6 mouse spleen at 3 nmol/g, iv measured after 90 mins post injection using Cy7 labelled compound by fluorescence based analysis; assay type: ADME, organism-based; conditions: in vivo, 1.5 h
# [24] = test system: Mus musculus; experiment: Neuroprotective activity against pilocarpine-induced seizure in C57BL6 mouse assessed as reduction in seizure severity at 30 nmol/g, po pretreated with compound for 1 hrs followed by pilocarpine induction and measured after 2 hrs; assay type: functional, organism-based; conditions: time 3.0 hrs
# [25] = test system: Mus musculus; experiment: Neuroprotective activity against pilocarpine-induced seizure in C57BL6 mouse assessed as reduction in seizure severity at 3 nmol/g, iv pretreated with compound for 1 hrs followed by pilocarpine induction and measured after 2 hrs; assay type: functional, organism-based; conditions: time 3.0 hrs
# [26] = test system: Neuron; experiment: Cytotoxicity against mouse primary neuron upto 1 uM incubated for 24 hrs; assay type: toxicity, cell-based
# [27] = Biodistribution in C57BL/6 mouse spleen at 3 nmol/g, iv measured after 24 hrs post injection using Cy7 labelled compound by fluorescence based analysis; assay type: ADME, organism-based; conditions: in vivo
# Sequence of Disks large homolog 4 (P78352 whole entry): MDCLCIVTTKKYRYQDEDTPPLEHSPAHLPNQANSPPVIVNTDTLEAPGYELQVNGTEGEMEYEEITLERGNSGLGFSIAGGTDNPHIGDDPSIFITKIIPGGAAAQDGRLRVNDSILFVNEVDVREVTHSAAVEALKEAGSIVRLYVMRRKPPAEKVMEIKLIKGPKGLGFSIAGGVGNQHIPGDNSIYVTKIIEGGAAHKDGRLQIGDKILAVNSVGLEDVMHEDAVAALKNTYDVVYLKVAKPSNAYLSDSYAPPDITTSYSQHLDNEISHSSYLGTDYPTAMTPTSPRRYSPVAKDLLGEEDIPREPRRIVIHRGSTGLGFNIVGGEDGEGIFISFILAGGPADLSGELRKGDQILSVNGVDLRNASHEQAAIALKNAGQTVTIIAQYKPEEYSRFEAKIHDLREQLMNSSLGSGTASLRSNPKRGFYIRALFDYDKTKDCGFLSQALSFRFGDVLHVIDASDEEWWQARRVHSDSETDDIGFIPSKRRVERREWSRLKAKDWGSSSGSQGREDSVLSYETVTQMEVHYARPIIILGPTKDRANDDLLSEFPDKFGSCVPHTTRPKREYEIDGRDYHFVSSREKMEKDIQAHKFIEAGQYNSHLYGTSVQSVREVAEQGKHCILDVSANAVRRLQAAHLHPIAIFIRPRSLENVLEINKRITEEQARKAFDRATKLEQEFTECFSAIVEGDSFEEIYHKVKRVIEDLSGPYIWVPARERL
smiles,measurement,setting,value
"CC[C@H](C)[C@@H]1NC(=O)[C@@H]2CSSC[C@@H]3NC(=O)[C@H](C(C)C)NC(=O)[C@H](CC(=O)O)NC(=O)[C@H](CO)NC(=O)[C@H](CCC(=O)O)NC(=O)[C@H]([C@@H](C)CC)NC(=O)[C@H](CO)NC(=O)[C@H](CO)NC(=O)[C@H](CC(C)C)NC(=O)[C@H](CCCCN)NC(=O)[C@@H]4CSSC[C@H](NC(=O)[C@H](CC(=O)O)NC(=O)[C@H](CO)NC(=O)[C@H](CC(=O)O)NC(=O)[C@H](CCCNC(=N)N)NC(=O)[C@H](CCCNC(=N)N)NC(=O)[C@H](CSSC[C@H](NC1=O)C(=O)N[C@@H](CCCNC(=N)N)C(=O)NCC(=O)N[C@@H](CC(N)=O)C(=O)NCC(=O)N[C@@H](Cc1ccc(O)cc1)C(=O)N4)NC(=O)[C@H](CCCNC(=N)N)NC(=O)[C@H](CCCNC(=N)N)NC(=O)[C@H](CCCNC(=N)N)NC(=O)[C@H](CCCNC(=N)N)NC(=O)[C@H](CC(C)C)NC(=O)[C@H]([C@@H](C)CC)NC(=O)[C@H](CCCNC(=N)N)NC(=O)[C@@H]1CCCN1C3=O)C(=O)N1CCC[C@H]1C(=O)NCC(=O)N[C@@H](C)C(=O)N2 (cyclo(ACICRGNGYCKLSSIESDVCPRILRRRRCRRDSDCPG); disulfide 2-20, 4-29, 10-35)",Activity,[1],Non-toxic
same,Activity,[2],20.9%
same,Drug uptake,[3],Active
same,Activity,[4],8.56%
same,Drug uptake,[5],Active
same,Activity,[6],Non-toxic
same,Activity,[7],18.2%
same,viability at 0.01 µM,[8],22.4%
same,Activity,[9],Active
same,Drug uptake,[10],Active
same,Activity,[11],Toxic
same,Survival,[12],50%
same,Drug uptake,[13],Active
same,Kd,[14],1800 nM
same,Drug uptake,[15],Active
same,Drug uptake,[16],Active
same,Drug uptake,[17],Active
same,Activity,[18],Active
same,viability at 0.001 µM,[19],39.8%
same,Activity,[20],Non-toxic
same,Activity,[21],Non-toxic
same,Survival,[22],75%
same,Drug uptake,[23],Active
same,Activity,[24],Not active; Slightly Lower Seizure Severity
same,Activity,[25],Active
same,Activity,[26],Non-toxic
same,Drug uptake,[27],Not_active
